# Laboratory results from patent US20080255106A1, “Novel 2-Phenyl-Imidazo[4,5-B]Pyridine Derivatives as Inhibitors of Glycogen Synthase Kinase for the Treatment of Dementia and Neurodegenerative Disorders” (AstraZeneca AB, priority 2005, published 2008).
# Structures can show the parent of a compound that is named as a salt.
# Molecular target: T1, GSK3β (Homo sapiens, UniProt P49841)
# T1 construct: purchased Dundee University, UK
# Assay: GSK3β Scintillation Proximity Assay (ATP competition)
# Assay type: biochemical
# Details: recombinant human GSK3β, SPA, 1 μM ATP, Km of ATP 20 μM used to calculate Ki
# Experimental: Determination of ATP Competition in Scintillation Proximity GSK3β Assay.
# GSK3β Scintillation Proximity Assay.
# The competition experiments were carried out in duplicate with 10 different concentrations of the inhibitors in clear-bottom microtiter plates (Wallac, Finland). A biotinylated peptide substrate, Biotin-Ala-Ala-Glu-Glu-Leu-Asp-Ser-Arg-Ala-Gly-Ser(PO3H2)-Pro-Gln-Leu (AstraZeneca, Lund), was added at a final concentration of 1 μM in an assay buffer containing 1 mU recombinant human GSK30 (Dundee University, UK), 12 mM morpholinepropanesulfonic acid (MOPS), pH 7.0, 0.3 mM EDTA, 0.01% β-mercaptoethanol, 0.004% Brij 35 (a […] detergent), 0.5% glycerol and 0.5 μg BSA/25 μl. The reaction was initiated by the addition of 0.04 μCi [γ-^33P]ATP (Amersham, UK) and unlabelled ATP at a final concentration of 1 μM and assay volume of 25 μl. After incubation for 20 minutes at room temperature, each reaction was terminated by the addition of 25 μl stop solution containing 5 mM EDTA, 50 μM ATP, 0.1% Triton X-100 and 0.25 mg streptavidin coated Scintillation Proximity Assay (SPA) beads (Amersham, UK). After 6 hours the radioactivity was determined in a liquid scintillation counter (1450 MicroBeta Trilux, Wallac). The inhibition curves were analysed by non-linear regression using GraphPad Prism, USA. The Km value of ATP for GSK3, used to calculate the inhibition constants (Ki) of the various compounds, was 20 μM.
# T1 sequence (P49841 whole entry): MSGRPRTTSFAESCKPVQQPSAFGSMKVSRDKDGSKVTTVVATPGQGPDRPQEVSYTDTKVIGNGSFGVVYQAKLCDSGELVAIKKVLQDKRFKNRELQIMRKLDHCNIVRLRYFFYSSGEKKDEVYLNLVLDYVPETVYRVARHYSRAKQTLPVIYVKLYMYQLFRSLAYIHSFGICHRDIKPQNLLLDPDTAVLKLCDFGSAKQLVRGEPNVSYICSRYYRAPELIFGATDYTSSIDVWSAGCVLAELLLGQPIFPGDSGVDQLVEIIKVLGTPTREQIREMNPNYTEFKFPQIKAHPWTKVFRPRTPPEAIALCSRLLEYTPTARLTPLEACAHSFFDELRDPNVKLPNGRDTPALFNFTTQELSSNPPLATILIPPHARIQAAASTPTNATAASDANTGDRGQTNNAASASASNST
row,SMILES,Ki
1,"COCCCNC(=O)c1ccnc2[nH]c(-c3ccc(C(=O)N4CCN(C)CC4)cc3)nc12 [Example 6, N-(3-Methoxypropyl)-2-{4-[(4-methylpiperazin-1-yl)carbonyl]phenyl}-3H-imidazo[4,5-b]pyridine-7-carboxamide hydrochloride]",51 nM
2,"COCCCNC(=O)c1ccnc2[nH]c(-c3ccc(C(F)(F)F)cc3)nc12 [Example 3, N-(3-Methoxypropyl)-2-[4-(trifluoromethyl)phenyl]-3H-imidazo[4,5-b]pyridine-7-carboxamide hydrochloride]",17 nM
3,"COCCCNC(=O)c1ccnc2[nH]c(-c3cccc(COCC(F)(F)C(F)F)c3)nc12 [Example 4, N-(3-Methoxypropyl)-2-{3-[(2,2,3,3-tetrafluoropropoxy)methyl]phenyl}-3H-imidazo[4,5-b]pyridine-7-carboxamide hydrochloride]",8 nM
4,"COCCCNC(=O)c1ccnc2[nH]c(-c3ccc(C(=O)N4CCOCC4)cc3)nc12 [Example 7, N-(3-Methoxypropyl)-2-[4-(morpholin-4-ylcarbonyl)phenyl]-3H-imidazo[4,5-b]pyridine-7-carboxamide hydrochloride]",36 nM
